Where “and” joins values, the source holds several entries; their conditions need not be identical. Equal values may be shown once.
Conditions: Transpiration method

Cc1ccccc1[N+](=O)[O-] [2-nitrotoluene]
Liquid
Conditions | vapor or sublimation pressure
278.3 K | 0.00328 kPa
278.4 K | 0.0032 kPa
283.3 K | 0.00526 kPa and 0.00502 kPa
288.3 K | 0.00806 kPa and 0.00804 kPa
293.2 K | 0.0124 kPa and 0.0119 kPa
298.2 K | 0.0181 kPa and 0.0175 kPa
303.1 K | 0.0259 kPa
303.2 K | 0.0273 kPa
308.1 K | 0.0381 kPa
308.2 K | 0.0391 kPa
313.1 K | 0.0563 kPa and 0.0555 kPa
318 K | 0.0765 kPa
318.1 K | 0.081 kPa
323 K | 0.108 kPa

Cc1ccc([N+](=O)[O-])cc1 [1-methyl-4-nitrobenzene]
Conditions | vapor or sublimation pressure
278.2 K, Crystal | 0.00067 kPa
279.6 K, Crystal | 0.0008 kPa
283.3 K, Crystal | 0.00113 kPa
288.2 K, Crystal | 0.00211 kPa
288.3 K, Crystal | 0.00196 kPa
290.3 K, Crystal | 0.00271 kPa
292.2 K, Crystal | 0.00326 kPa
293.2 K, Crystal | 0.00332 kPa
296.8 K, Crystal | 0.00539 kPa
298.2 K, Crystal | 0.00566 kPa
298.3 K, Crystal | 0.00599 kPa
301.4 K, Crystal | 0.00833 kPa
303.2 K, Crystal | 0.00937 kPa
304.3 K, Crystal | 0.011 kPa
307.4 K, Crystal | 0.015 kPa
308.2 K, Crystal | 0.0151 kPa and 0.0149 kPa
310.3 K, Crystal | 0.0193 kPa
313.2 K, Crystal | 0.0252 kPa and 0.0239 kPa
314.3 K, Crystal | 0.0292 kPa
315.2 K, Crystal | 0.0309 kPa
315.7 K, Crystal | 0.033 kPa
316.2 K, Crystal | 0.0354 kPa
316.7 K, Crystal | 0.0359 kPa
317.2 K, Crystal | 0.0383 kPa
318.2 K, Crystal | 0.04 kPa and 0.0377 kPa
319.3 K, Crystal | 0.0438 kPa
320.3 K, Crystal | 0.0483 kPa
321.2 K, Crystal | 0.0523 kPa
322.2 K, Crystal | 0.0569 kPa
323.1 K, Crystal | 0.0544 kPa and 0.0572 kPa
323.3 K, Crystal | 0.0626 kPa
324.3 K, Crystal | 0.0673 kPa
326.2 K, Liquid | 0.0797 kPa
328.1 K, Liquid | 0.0862 kPa and 0.0853 kPa
329.2 K, Liquid | 0.097 kPa
332.2 K, Liquid | 0.1207 kPa and 0.1198 kPa
333 K, Liquid | 0.117 kPa and 0.113 kPa
335.3 K, Liquid | 0.1411 kPa
338 K, Liquid | 0.162 kPa and 0.155 kPa
338.2 K, Liquid | 0.168 kPa
341.2 K, Liquid | 0.1995 kPa
343 K, Liquid | 0.216 kPa and 0.21 kPa
344.4 K, Liquid | 0.2417 kPa
347.1 K, Liquid | 0.2802 kPa
347.9 K, Liquid | 0.274 kPa
348 K, Liquid | 0.29 kPa
350.2 K, Liquid | 0.3388 kPa
352.9 K, Liquid | 0.369 kPa
353 K, Liquid | 0.374 kPa
353.2 K, Liquid | 0.4024 kPa
357.9 K, Liquid | 0.483 kPa
358 K, Liquid | 0.504 kPa
362.9 K, Liquid | 0.622 kPa
363 K, Liquid | 0.66 kPa
367.9 K, Liquid | 0.841 kPa and 0.793 kPa

Cc1cccc([N+](=O)[O-])c1 [3-nitrotoluene]
Liquid
Conditions | vapor or sublimation pressure
290.6 K | 0.00648 kPa
293.3 K | 0.00842 kPa
296.3 K | 0.0103 kPa
298.2 K | 0.012 kPa
299.2 K | 0.0127 kPa and 0.0133 kPa
302.2 K | 0.0163 kPa
302.3 K | 0.0168 kPa
303.2 K | 0.0176 kPa and 0.0173 kPa
305.3 K | 0.0211 kPa
308.2 K | 0.0259 kPa [middle of 4 runs]
308.3 K | 0.0267 kPa
311.4 K | 0.0335 kPa
313.2 K | 0.037 kPa and 0.0363 kPa and 0.0361 kPa
314.3 K | 0.0414 kPa
317.2 K | 0.0498 kPa
318.1 K | 0.0516 kPa
318.2 K | 0.0535 kPa and 0.0524 kPa
320.2 K | 0.0607 kPa
323.1 K | 0.0743 kPa and 0.0718 kPa
323.2 K | 0.0732 kPa and 0.0749 kPa
328.1 K | 0.103 kPa
333.1 K | 0.138 kPa
338 K | 0.187 kPa

— the NIST ThermoML archive (doi:10.1016/j.jct.2017.03.029)
